Measured values: patent US8916551B2, “Heterocyclic compound and use thereof” (Takeda Pharmaceutical Company Limited, priority 2010, dated 2014)

Molecular target: T1, AMPA receptor (human GluR1 flip/stargazin expressed in CHO-K1 cells) (Homo sapiens, UniProt P42261)
T1 construct: expressed in transfected cells; host or cells: CHO-K1
Test: AMPA receptor function enhancing activity using calcium influx as index
Assay type: cell-based
Settings: 100% = 3 mM glutamic acid + 300 μM cyclothiazide, 0% = 3 mM glutamic acid only
Excerpt: Human GluR1 flip cDNA was amplified by PCR using forward primer […] (SEQ ID NO: 1) and reverse primer […] (SEQ ID NO: 2) artificially synthesized using human brain-derived cDNA (BD Bio science) as a template. The amplified product was digested with restriction enzymes EcoRI, NotI (TAKARA SHUZO CO. LTD.), and incorporated into the same site of pcDNA3.1(+) (Invitrogen) to construct pcDNA3.1(+)/human GluR1 flip gene. Human stargazin cDNA was amplified by PCR using forward primer […] (SEQ ID NO: 3) and reverse primer […] (SEQ ID NO: 4) artificially synthesized using human hippocampus cDNA as a template. The amplified product was digested with restriction enzymes XhoI, BamHI (TAKARA SHUZO CO. LTD.), and incorporated into the same site of pcDNA3.1(−) (Invitrogen) to construct pcDNA3.1 Zeo(−)/human stargazin gene.
CHO-K1 cells passaged in a culture medium (Ham's F12 medium (Invitrogen) added with 10% inactivated fetal bovine serum (Morgate) and penicillin, streptomycin (Invitrogen)) were detached with 0.05% trypsin, 0.53 mM EDTA (Invitrogen) diluted with D-PBS(−). The detached cells were suspended in a culture medium, and recovered by a centrifugation operation at 1,000 rpm. The recovered cells were suspended again in D-PBS(−), and added to a 0.4 cm electroporation cuvette (BioRad). pcDNA3.1(+)/human GluR1 flip gene (5 μg) and pcDNA3.1 Zeo(−)/human stargazin gene (15 μg) were added, and the mixture was introduced into CHO-K1 cells using Gene Pulser II (BioRad) under the conditions of 950 μFd, […]. The introduced cells were cultured overnight in a culture medium and, the next day, plated in a 96 well plate at 250 cells/well using a selection medium (culture medium added with Zeocin (Invitrogen) to 250 μg/mL). Clones showing drug resistance were selected, and GluR1 flip/stargazin expressing clones were selected by an assay method using calcium influx as an index as shown below.
CHO-K1/GluR1 flip/stargazin expressing cells were plated on a 96 well black transparent bottom plate (Costar) at 2×10^4 cells/well, and cultured in a 37° C., CO2 incubator (SANYO Electric Co., Ltd.) for 2 days. The medium in the cell plate was removed, and assay buffer A (D-MEM (Invitrogen), 0.1% BSA (Serogical Protein), 20 mM HEPES (Invitrogen)) was added at 50 μL/well. A calcium indicator (Calcium 4 Assay Kit, Invitrogen) added with 2.5 mM probenecid (Invitrogen) was added at 50 μL/well and the well was left standing in 37° C., CO2 incubator for 1 hr. The cell plate was set in CellLux (PerkinElmer), a mixture (50 μL) of 9 mM glutamic acid diluted with assay buffer B (HBSS (Invitrogen), 0.1% BSA, 20 mM HEPES) (final concentration 3 mM) and a test compound (test compound concentration 30 μM) was added, and the amount of change in fluorescence level in 3 min was measured. In the definition here, the amount of change in fluorescence level of well added with glutamic acid at final concentration 3 mM and 300 μM cyclothiazide (TOCRIS) is 100%, the amount of change in fluorescence level of well added only with glutamic acid at final concentration 3 mM is 0%, and the compound activity was calculated according to the following formula. activity(%)=(X−C)/(T−C)×100 T: amount of change in fluorescence level of well added with glutamic acid at final concentration 3 mM and 300 μM cyclothiazide C: amount of change in fluorescence level of well added only with glutamic acid at final concentration 3 mM X: amount of change in fluorescence level of well added with test compound

[1] = test compound 30 μM with glutamic acid final 3 mM, change in fluorescence in 3 min
[2] = test compound 30 μM with 3 mM glutamic acid, change in fluorescence level in 3 min

T1 sequence (P42261 19-906 isoform P42261-2 limits assumed): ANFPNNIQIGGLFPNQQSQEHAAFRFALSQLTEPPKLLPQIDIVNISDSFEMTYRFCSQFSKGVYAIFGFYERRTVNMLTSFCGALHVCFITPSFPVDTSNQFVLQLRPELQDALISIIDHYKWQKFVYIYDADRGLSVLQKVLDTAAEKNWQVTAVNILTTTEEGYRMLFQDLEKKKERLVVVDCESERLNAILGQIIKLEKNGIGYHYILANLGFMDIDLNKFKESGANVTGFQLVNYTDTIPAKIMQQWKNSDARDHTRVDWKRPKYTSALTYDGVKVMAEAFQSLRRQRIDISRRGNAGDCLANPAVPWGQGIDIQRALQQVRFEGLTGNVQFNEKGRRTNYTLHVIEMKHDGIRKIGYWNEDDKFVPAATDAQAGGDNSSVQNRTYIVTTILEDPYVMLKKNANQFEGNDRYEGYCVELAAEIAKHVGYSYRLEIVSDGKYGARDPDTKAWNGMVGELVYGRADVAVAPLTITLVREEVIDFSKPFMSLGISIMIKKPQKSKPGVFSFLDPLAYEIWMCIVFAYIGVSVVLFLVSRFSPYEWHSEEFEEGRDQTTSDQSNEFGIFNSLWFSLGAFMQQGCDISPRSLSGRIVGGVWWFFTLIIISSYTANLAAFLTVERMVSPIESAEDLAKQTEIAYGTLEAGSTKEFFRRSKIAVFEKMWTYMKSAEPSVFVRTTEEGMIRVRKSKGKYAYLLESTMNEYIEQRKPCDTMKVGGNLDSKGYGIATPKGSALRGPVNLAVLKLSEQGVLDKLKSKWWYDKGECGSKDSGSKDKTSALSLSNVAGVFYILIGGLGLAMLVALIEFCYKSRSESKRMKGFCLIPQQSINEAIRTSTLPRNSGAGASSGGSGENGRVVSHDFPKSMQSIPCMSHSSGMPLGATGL
T1 sequence (Q9Y698 whole entry partner): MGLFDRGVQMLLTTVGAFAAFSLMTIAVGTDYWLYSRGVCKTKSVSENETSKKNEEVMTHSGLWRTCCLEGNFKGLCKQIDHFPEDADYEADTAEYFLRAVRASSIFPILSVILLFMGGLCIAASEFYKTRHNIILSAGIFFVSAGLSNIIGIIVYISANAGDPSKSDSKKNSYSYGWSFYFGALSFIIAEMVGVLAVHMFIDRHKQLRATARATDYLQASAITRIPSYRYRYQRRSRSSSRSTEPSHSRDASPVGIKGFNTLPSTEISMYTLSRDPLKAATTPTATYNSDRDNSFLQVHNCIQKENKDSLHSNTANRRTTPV

| Compound | activity (%) [1] [%] | activity (%) [2] [%] |
| --- | --- | --- |
| Cc1ccc(Oc2ccc(C3CCCN4CCS(=O)(=O)N=C34)cc2)cc1C (centres unmarked) [Example 135, 9-[4-(3,4-dimethylphenoxy)phenyl]-3,4,6,7,8,9-hexahydropyrido[2,1-c][1,2,4]thiadiazine 2,2-dioxide] | 59 | – |
| Cc1ccc(C(F)(F)c2ccc(C3=CC=CN4CCS(=O)(=O)N=C34)cc2)cc1 [Example 136, 9-{4-[difluoro(4-methylphenyl)methyl]phenyl}-3,4-dihydropyrido[2,1-c][1,2,4]thiadiazine 2,2-dioxide] | 77 | – |
| Cc1ccc(C(F)(F)c2ccc(C3CCCN4CCS(=O)(=O)N=C34)cc2)cc1 (centres unmarked) [Example 138, 9-{4-[difluoro(4-methylphenyl)methyl]phenyl}-3,4,6,7,8,9-hexahydropyrido[2,1-c][1,2,4]thiadiazine 2,2-dioxide] | 71 | – |
| O=S1(=O)CCN2CCCC(c3ccc(Oc4ccc5c(c4)OCC5)cc3)C2=N1 (centres unmarked) [Example 141, 9-[4-(2,3-dihydro-1-benzofuran-6-yloxy)phenyl]-3,4,6,7,8,9-hexahydropyrido[2,1-c][1,2,4]thiadiazine 2,2-dioxide] | 80 | – |
| O=S1(=O)CCN2CCCC(c3ccc(Oc4ccc(Br)c(C(F)(F)F)c4)cc3)C2=N1 (centres unmarked) [Example 142, 9-{4-[4-bromo-3-(trifluoromethyl)phenoxy]phenyl}-3,4,6,7,8,9-hexahydropyrido[2,1-c][1,2,4]thiadiazine 2,2-dioxide] | – | 70 |
| Cc1cc(F)ccc1Oc1ccc(C2CCCN3CCS(=O)(=O)N=C23)cc1 (centres unmarked) [Example 144, 9-[4-(4-fluoro-2-methylphenoxy)phenyl]-3,4,6,7,8,9-hexahydropyrido[2,1-c][1,2,4]thiadiazine 2,2-dioxide] | – | 76 |
| Cc1cc(F)ccc1Oc1ccc(C2CCCN3CCS(=O)(=O)N=C23)cc1 (centres unmarked) [Example 145, 9-[4-(4-fluoro-2-methylphenoxy)phenyl]-3,4,6,7,8,9-hexahydropyrido[2,1-c][1,2,4]thiadiazine 2,2-dioxide] | – | 84 |
| O=S1(=O)CCN2CCC[C@@H](c3ccc(Oc4ccc(Cl)cc4)cc3)C2=N1 [Example 149, (9S)-9-[4-(4-chlorophenoxy)phenyl]-3,4,6,7,8,9-hexahydropyrido[2,1-c][1,2,4]thiadiazine 2,2-dioxide] | – | 77 |
| O=S1(=O)CCN2CCCC(c3ccc(Oc4ccc(Cl)c(Cl)c4)cc3)C2=N1 (centres unmarked) [Example 152, 9-[4-(3,4-dichlorophenoxy)phenyl]-3,4,6,7,8,9-hexahydropyrido[2,1-c][1,2,4]thiadiazine 2,2-dioxide] | – | 80 |
| COc1cc(Oc2ccc(C3=CC=CN4CCS(=O)(=O)N=C34)cc2)ccc1Cl [Example 154, 9-[4-(4-chloro-3-methoxyphenoxy)phenyl]-3,4-dihydropyrido[2,1-c][1,2,4]thiadiazine 2,2-dioxide] | – | 75 |
| COc1cc(Oc2ccc(C3CCCN4CCS(=O)(=O)N=C34)cc2)ccc1Cl (centres unmarked) [Example 155, 9-[4-(4-chloro-3-methoxyphenoxy)phenyl]-3,4,6,7,8,9-hexahydropyrido[2,1-c][1,2,4]thiadiazine 2,2-dioxide] | – | 63 |
| CC(F)(F)c1cccc(Oc2ccc(C3=CC=CN4CCS(=O)(=O)N=C34)cc2)c1 [Example 156, 9-{4-[3-(1,1-difluoroethyl)phenoxy]phenyl}-3,4-dihydropyrido[2,1-c][1,2,4]thiadiazine 2,2-dioxide] | – | 90 |
| CC(F)(F)c1cccc(Oc2ccc(C3CCCN4CCS(=O)(=O)N=C34)cc2)c1 (centres unmarked) [Example 158, 9-{4-[3-(1,1-difluoroethyl)phenoxy]phenyl}-3,4,6,7,8,9-hexahydropyrido[2,1-c][1,2,4]thiadiazine 2,2-dioxide] | – | 76 |
| CC(F)(F)c1cccc(Oc2ccc(C3CCCN4CCS(=O)(=O)N=C34)cc2)c1 (centres unmarked) [Example 159, 9-{4-[3-(1,1-difluoroethyl)phenoxy]phenyl}-3,4,6,7,8,9-hexahydropyrido[2,1-c][1,2,4]thiadiazine 2,2-dioxide] | – | 90 |
| O=S1(=O)CCN2CCC[C@@H](c3ccc(Oc4cc(C(F)(F)F)ccc4Cl)cc3)C2=N1 [Example 160, (9S)-9-{4-[2-chloro-5-(trifluoromethyl)phenoxy]phenyl}-3,4,6,7,8,9-hexahydropyrido[2,1-c][1,2,4]thiadiazine 2,2-dioxide] | – | 78 |
| CCc1ccc(Oc2ccc(C3CCCN4CCS(=O)(=O)N=C34)cc2)cc1 (centres unmarked) [Example 161, 9-[4-(4-ethylphenoxy)phenyl]-3,4,6,7,8,9-hexahydropyrido[2,1-c][1,2,4]thiadiazine 2,2-dioxide] | – | 57 |
| O=S1(=O)CCN2C=CC=C(c3ccc(C(F)(F)c4ccccc4)cc3)C2=N1 [Example 162, 9-{4-[difluoro(phenyl)methyl]phenyl}-3,4-dihydropyrido[2,1-c][1,2,4]thiadiazine 2,2-dioxide] | – | 56 |
| O=S1(=O)CCN2CCCC(c3ccc(C(F)(F)c4ccccc4)cc3)C2=N1 (centres unmarked) [Example 163, 9-{4-[difluoro(phenyl)methyl]phenyl}-3,4,6,7,8,9-hexahydropyrido[2,1-c][1,2,4]thiadiazine 2,2-dioxide] | – | 74 |
| COc1cc(Oc2ccc(C3CC(C)CN4CCS(=O)(=O)N=C34)cc2)ccc1F (centres unmarked) [Example 164, 9-[4-(4-fluoro-3-methoxyphenoxy)phenyl]-7-methyl-3,4,6,7,8,9-hexahydropyrido[2,1-c][1,2,4]thiadiazine 2,2-dioxide] | – | 69 |
| CC1CC(c2ccc(Oc3cccc(C(C)(F)F)c3)cc2)C2=NS(=O)(=O)CCN2C1 (centres unmarked) [Example 171, 9-{4-[3-(1,1-difluoroethyl)phenoxy]phenyl}-7-methyl-3,4,6,7,8,9-hexahydropyrido[2,1-c][1,2,4]thiadiazine 2,2-dioxide] | – | 87 |
| CC(F)(F)c1ccc(C2CCCN3CCS(=O)(=O)N=C23)cc1 (centres unmarked) [Example 174, 9-[4-(1,1-difluoroethyl)phenyl]-3,4,6,7,8,9-hexahydropyrido[2,1-c][1,2,4]thiadiazine 2,2-dioxide] | – | 79 |
| O=S1(=O)CCN2CCCC(c3ccc(C(F)(F)F)cc3)C2=N1 (centres unmarked) [Example 177, 9-[4-(trifluoromethyl)phenyl]-3,4,6,7,8,9-hexahydropyrido[2,1-c][1,2,4]thiadiazine 2,2-dioxide] | – | 69 |
| O=S1(=O)CCN2CCCC(c3ccc(OC(F)(F)F)cc3)C2=N1 (centres unmarked) [Example 179, 9-[4-(trifluoromethoxy)phenyl]-3,4,6,7,8,9-hexahydropyrido[2,1-c][1,2,4]thiadiazine 2,2-dioxide] | – | 69 |
| CC1=CN2CCS(=O)(=O)N=C2C(c2ccc(OC3CCCCC3)cc2)=N1 [Example 180, 9-[4-(cyclohexyloxy)phenyl]-7-methyl-3,4-dihydropyrazino[2,1-c][1,2,4]thiadiazine 2,2-dioxide] | – | 70 |
| O=S1(=O)CCN2C=CC=C(C3CCC(c4ccccc4)CC3)C2=N1 (centres unmarked) [Example 185, 9-(4-phenylcyclohexyl)-3,4-dihydropyrido[2,1-c][1,2,4]thiadiazine 2,2-dioxide] | – | 36 |
| O=S1(=O)CCN2C=CC=C(c3ccc(Oc4cccc(C(F)(F)F)c4)cc3)C2=N1 [Example 187, 9-{4-[3-(trifluoromethyl)phenoxy]phenyl}-3,4-dihydropyrido[2,1-c][1,2,4]thiadiazine 2,2-dioxide] | – | 72 |
